Source: US20180044628A1, “Method for Biofilm Control and Treatment” (priority 2015, published 2018)

Tests used:
Format in all cases: cell-based, Bacillus subtilis NCIB 3610
nasA promoter = experiment: PnasA-YFP reporter of glutamine limitation in biofilms, with constitutive Phyperspank-CFP as control
Experimental: FIG. 2a. […] Glutamine limitation was monitored using YFP expressed from the nasA promoter, which is activated upon glutamine limitation^21. FIG. 2b. […] FIG. 2c. Growth area before and after addition of 1 mM glutamine to an oscillating colony. FIG. 2d. […] FIG. 2e. […] Scale bar represents 100 μm. FIG. 2f. Growth area of an oscillating colony before and after addition of 30 mM glutamate (shading). FIG. 2g.
To determine whether biofilms experience glutamine limitation, expression of nasA, one of several genes activated in response to a lack of glutamine^21, was measured.

[1] = test system: Bacillus subtilis biofilms; experiment: Biofilm growth oscillations in a microfluidic device, followed by time-lapse phase contrast microscopy and image differencing
Experimental: Growth conditions. The biofilms were grown using MSgg medium^16. It contains 5 mM potassium phosphate buffer (pH 7.0), 100 mM MOPS buffer (pH 7.0, adjusted using NaOH), 2 mM MgCl2, 700 μM CaCl2, 50 μM MnCl2, 100 μM FeCl3, 1 μM ZnCl2, 2 μM thiamine HCl, 0.5% (v/v) glycerol and 0.5% (w/v) monosodium glutamate. The MSgg medium was made from stock solutions on the day of the experiment, and the stock solution for glutamate was made each week.
Microfluidics. The CellASIC ONIX Microfluidic Platform and the Y04D microfluidic plate (EMD Millipore) were used. It provides unconventionally large chambers, allowing the formation of colonies containing millions of cells, yet still leaves room for media flow. Media flow in the microfluidic chamber was driven by a pneumatic pump from the CellASIC ONIX Microfluidic Platform, and the pressure from the pump was kept stable during the course of the oscillation. In most of the experiments, a pump pressure of 1 psi was used with only one media inlet open (there are 6 media inlets in the Y04D plate), which corresponds to a flow speed of ˜16 μm/s in the growth chamber.
On the day before the experiment, cells from −80° C. glycerol stock were streaked onto LB agar plate and incubated at 37° C. for overnight. The next day morning, a single colony was picked from the plate and inoculated into 3 ml of LB broth in a 50 ml conical tube, and then incubated in 37° C. shaker. After 2.5 hours of incubation, the cell culture was centrifuged at 2100 rcf for 1 min, and then the cell pellet was re-suspended in MSgg and then immediately loaded into microfluidics. After the loading, cells in the microfluidic chamber were incubated at 37° C. for 90 min, and then the temperature was kept at 30° C. for the rest of the experiment.
Time-Lapse Microscopy. The growth of the biofilms was recorded using phase contrast microscopy. The microscopes used were Olympus IX81 and IX83, and DeltaVision PersonalDV. To image entire biofilms, 10× lens objectives were used in most of the experiments. Images were taken every 10 min Whenever fluorescence images were recorded, the minimum exposure time was used that still provided a good signal-to-noise ratio.
(§1) Biofilm growth rate. ImageJ (National Institutes of Health) and MATLAB (MathWorks) were used for image analysis. In house software was also developed to perform colony detection and quantification of colony expansion. Multiple methods of colony detection were used to ensure the accuracy of the analysis. To detect regions of expansion in a biofilm, image differencing was performed on snapshots of the biofilm from time-lapse microscopy videos. Specifically, the difference between two consecutive phase contrast images (taken 10 min apart) was calculated by finding the absolute difference between each pixel in each image. […] The intensity values from the stack correlate with the expansion inside the biofilm. The growth area was determined by converting difference images to binary images and then measuring the area of the colony growth region (white pixels). To measure cell replication time, the length and division of individual cells were tracked in the biofilm periphery (FIG. 8b).

[2] = test system: Bacillus subtilis biofilms; experiment: Cell death (Sytox Green) and cell growth (difference images) within biofilms under external attack
Experimental: Scale bar represents 50 μm. […] Error bars represent standard deviations.
Scale bar represents 100 μm.
as §1

[3] = 1 mM glutamine added to growth media

SMILES: N [ammonium]
- expression from constitutive reporter (Phyperspank-CFP + 1 mM IPTG) (nasA promoter; 1 mM external ammonium added): does not affect expression from a constitutive reporter
- expression from the PnasA-YFP reporter (nasA promoter; 1 mM external ammonium added): represses expression from the PnasA-YFP reporter
- colony growth after removal of external ammonium ([1]; additional ammonium (13 mM) suddenly removed from the media): growth in the biofilm periphery halted
- effect on periodic halting in biofilm expansion ([1]; media supplemented with 1 mM ammonium): eliminated the periodic halting in biofilm expansion

SMILES: O=C(N[C@H](CO)[C@H](O)c1ccc([N+](=O)[O-])cc1)C(Cl)Cl [chloramphenicol]
- growth of interior cells after attack ([2]; wild type biofilm, chloramphenicol 5 μg/ml (FIG. 12)): growth of interior cells was observed

SMILES: N[C@@H](CCC(=O)O)C(=O)[O-].[Na+] [glutamate, monosodium glutamate]
- effect on biofilm oscillations ([1]; 30 mM glutamate added to MSgg medium, oscillating colony): not quenched
- effect on biofilm oscillations ([1]; glutamate increased by 5 times of normal MSgg levels): leads to quenching of the oscillation

SMILES: NC(=O)CC[C@H](N)C(=O)O [glutamine]
- expression of constitutive promoter (Phyperspank-CFP + 1 mM IPTG) (nasA promoter; [3]): did not affect expression of a constitutive promoter
- nasA promoter expression (PnasA-YFP) (nasA promoter; [3]): reduced nasA promoter expression
- effect on periodic halting of biofilm growth (oscillations) ([1]; 1 mM glutamine added to MSgg medium, oscillating colony): eliminated periodic halting of biofilm growth

SMILES: OCC(O)CO [glycerol]
- effect on biofilm oscillations ([1]; glycerol increased by 5 times of normal MSgg levels): does not

SMILES: OO [hydrogen peroxide]
- killing of biofilm ([2]; GDH overexpression strain (Phyp-RocG, induced with 1 mM IPTG) exposed to hydrogen peroxide): more effective global killing throughout the biofilm
- cell death (Sytox marker) in biofilm ([2]; wild type biofilm, H2O2 2% w/w (FIG. 4b) or 0.15% v/v (FIG. 12)): increased cell death was observed predominantly in the biofilm periphery
- growth of interior cells after attack ([2]; wild type biofilm, H2O2 2% w/w (FIG. 4c) or 0.15% v/v (FIG. 12)): led to growth of interior cells
